Columns and labels:
[1] = system: M. tuberculosis H37Rv infected dTHP-1 cells; experiment: Phagolysosome maturation: mycobacteria in acid compartments (Lyso Tracker Red / auramin confocal microscopy); type: cell-based; conditions: 3 mM EGTA added to cells stimulated with PS/PA liposomes; FIG. 7
[2] = system: M. tuberculosis H37Rv infected dTHP-1 cells; experiment: Phagolysosome maturation: mycobacteria in LAMP-1 expressing compartments (anti-LAMP-1 / auramin confocal microscopy); type: cell-based; conditions: EGTA added to cells stimulated with PS/PA liposomes; FIG. 8

## O=C(O)CN(CCOCCOCCN(CC(=O)O)CC(=O)O)CC(=O)O [EGTA]
[1]
  effect on PS/PA liposome induced phagosome acidification: inhibits the acidification process of phagosome restoring the initial conditions
[2]
  effect on PS/PA liposome induced phagolysosome maturation (LAMP-1): inhibits
